Values quoted from earlier work, collected in patent US20250019345A1, “NEW CANNABINOID-GAB[…] USES THEREOF” (LONDON PHARMACEUTICALS AND RESEARCH CORPORATION, priority 2021, published 2025).

Conditions: after oral administration; for Tmax: cannabinoids

Compound	Tmax [h]	bioavailability
C=C(C)[C@@H]1CCC(C)=C[C@H]1c1c(O)cc(CCCCC)cc1O [CBD, cannabidiol]	~4	–
CCCCCc1cc(O)c2c(c1)OC(C)(C)[C@@H]1CCC(C)=C[C@@H]21 [THC, delta-9-tetrahydrocannabinol]	~4	–
CC(C)C[C@H](CN)CC(=O)O [pregabalin]	–	exceed 90%
